Measurements taken from PubChem BioAssay AID1963826 (Molecular Pharmacology Branch, DTP, NCI, 2024).

Test system: 926638-142-R-J1-PDC complex spheroid viability
Assay: Anticancer human tumor 926638-142-R-J1-PDC patient-derived endometrial carcinoma cell line growth inhibition [POLQ]
Conditions: for IC50: curve of first compound; for viability, T/C: stronger effect = lower value
Outline: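 Growth inhibition in 3D: complex spheroids (tumor PDC, HUVEC, MSC) treated with POLQ inhibitor combinations; where Cmax unknown, highest tested concentration 10 microM, except SN-38 at 1 microM.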

[1] = second compound 0.0316 µM, first compound 0.0316 µM
[2] = second compound 0.0316 µM, first compound 0.1 µM
[3] = second compound 0.0316 µM, first compound 0.316 µM
[4] = second compound 0.0316 µM, first compound 1 µM
[5] = second compound 0.0316 µM, first compound 3.16 µM
[6] = second compound 0.0316 µM, first compound 10 µM
[7] = second compound 0.1 µM, first compound 0.0316 µM
[8] = second compound 0.1 µM, first compound 0.1 µM
[9] = second compound 0.1 µM, first compound 0.316 µM
[10] = second compound 0.1 µM, first compound 1 µM
[11] = second compound 0.1 µM, first compound 3.16 µM
[12] = second compound 0.1 µM, first compound 10 µM
[13] = second compound 0.316 µM, first compound 0.0316 µM
[14] = second compound 0.316 µM, first compound 0.1 µM
[15] = second compound 0.316 µM, first compound 0.316 µM
[16] = second compound 0.316 µM, first compound 1 µM
[17] = second compound 0.316 µM, first compound 3.16 µM
[18] = second compound 0.316 µM, first compound 10 µM
[19] = second compound 1 µM, first compound 0.0316 µM
[20] = second compound 1 µM, first compound 0.1 µM
[21] = second compound 1 µM, first compound 0.316 µM
[22] = second compound 1 µM, first compound 1 µM
[23] = second compound 1 µM, first compound 3.16 µM
[24] = second compound 1 µM, first compound 10 µM
[25] = second compound 3.16 µM, first compound 0.0316 µM
[26] = second compound 3.16 µM, first compound 0.1 µM
[27] = second compound 3.16 µM, first compound 0.316 µM
[28] = second compound 3.16 µM, first compound 1 µM
[29] = second compound 3.16 µM, first compound 3.16 µM
[30] = second compound 3.16 µM, first compound 10 µM
[31] = second compound 10 µM, first compound 0.0316 µM
[32] = second compound 10 µM, first compound 0.1 µM
[33] = second compound 10 µM, first compound 0.316 µM
[34] = second compound 10 µM, first compound 1 µM
[35] = second compound 10 µM, first compound 3.16 µM
[36] = second compound 10 µM, first compound 10 µM
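Also: spheroids exposed to drugs for one week before readout.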
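For viability, T/C in this document: percent viability relative to DMSO vehicle control wells set as 100%.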

## COc1cc(C2c3cc4c(cc3C(OC3OC5COC(C)OC5C(O)C3O)C3COC(=O)C23)OCO4)cc(OC)c1O (stereo unspecified) + Nc1ccc(C#CCN(C(=O)Cc2ncc(C(F)(F)F)cc2C(F)(F)F)c2ccc(F)cc2)nn1
Second compound 0.0316 µM
  IC50: > 10 µM
Second compound 0.1 µM
  IC50: > 10 µM
Second compound 0.316 µM
  IC50: > 10 µM
Second compound 1 µM
  IC50: > 10 µM
Second compound 3.16 µM
  IC50: > 10 µM
Second compound 10 µM
  IC50: > 10 µM
[1]
  viability, T/C: 99.2%
[2]
  viability, T/C: 81.6%
[3]
  viability, T/C: 80.3%
[4]
  viability, T/C: 73.1%
[5]
  viability, T/C: 77.8%
[6]
  viability, T/C: 58.1%
[7]
  viability, T/C: 96.6%
[8]
  viability, T/C: 101%
[9]
  viability, T/C: 70.3%
[10]
  viability, T/C: 67.4%
[11]
  viability, T/C: 80%
[12]
  viability, T/C: 53.5%
[13]
  viability, T/C: 106%
[14]
  viability, T/C: 77.7%
[15]
  viability, T/C: 71.7%
[16]
  viability, T/C: 69.4%
[17]
  viability, T/C: 69.7%
[18]
  viability, T/C: 54%
[19]
  viability, T/C: 102%
[20]
  viability, T/C: 83.1%
[21]
  viability, T/C: 80.4%
[22]
  viability, T/C: 74.4%
[23]
  viability, T/C: 69.3%
[24]
  viability, T/C: 57%
[25]
  viability, T/C: 83.3%
[26]
  viability, T/C: 87.2%
[27]
  viability, T/C: 71.2%
[28]
  viability, T/C: 63.3%
[29]
  viability, T/C: 76.1%
[30]
  viability, T/C: 51%
[31]
  viability, T/C: 94.9%
[32]
  viability, T/C: 82.6%
[33]
  viability, T/C: 73.3%
[34]
  viability, T/C: 63%
[35]
  viability, T/C: 69%
[36]
  viability, T/C: 53.4%

## Nc1ccn(C2OC(CO)C(O)C2(F)F)c(=O)n1 (stereo unspecified) + Nc1ccc(C#CCN(C(=O)Cc2ncc(C(F)(F)F)cc2C(F)(F)F)c2ccc(F)cc2)nn1
Second compound 0.0316 µM
  IC50: 1.06 µM
Second compound 0.1 µM
  IC50: 0.682 µM
Second compound 0.316 µM
  IC50: 0.948 µM
Second compound 1 µM
  IC50: 0.701 µM
Second compound 3.16 µM
  IC50: 0.449 µM
Second compound 10 µM
  IC50: 2.4 µM
[1]
  viability, T/C: 76.5%
[2]
  viability, T/C: 63.9%
[3]
  viability, T/C: 57%
[4]
  viability, T/C: 52.7%
[5]
  viability, T/C: 43.9%
[6]
  viability, T/C: 29.6%
[7]
  viability, T/C: 96.8%
[8]
  viability, T/C: 82.5%
[9]
  viability, T/C: 49.4%
[10]
  viability, T/C: 44.6%
[11]
  viability, T/C: 49.9%
[12]
  viability, T/C: 25.6%
[13]
  viability, T/C: 91.2%
[14]
  viability, T/C: 72%
[15]
  viability, T/C: 61.8%
[16]
  viability, T/C: 49.2%
[17]
  viability, T/C: 40.8%
[18]
  viability, T/C: 27%
[19]
  viability, T/C: 81.8%
[20]
  viability, T/C: 65.7%
[21]
  viability, T/C: 51.1%
[22]
  viability, T/C: 47.5%
[23]
  viability, T/C: 49.6%
[24]
  viability, T/C: 28.9%
[25]
  viability, T/C: 80%
[26]
  viability, T/C: 67.5%
[27]
  viability, T/C: 49.9%
[28]
  viability, T/C: 42.9%
[29]
  viability, T/C: 44.6%
[30]
  viability, T/C: 33.3%
[31]
  viability, T/C: 79.6%
[32]
  viability, T/C: 73.1%
[33]
  viability, T/C: 66.3%
[34]
  viability, T/C: 48%
[35]
  viability, T/C: 55.4%
[36]
  viability, T/C: 38.9%

## O=c1[nH]cc(F)c(=O)[nH]1 + Nc1ccc(C#CCN(C(=O)Cc2ncc(C(F)(F)F)cc2C(F)(F)F)c2ccc(F)cc2)nn1
Second compound 0.0316 µM
  IC50: > 10 µM
Second compound 0.1 µM
  IC50: > 10 µM
Second compound 0.316 µM
  IC50: > 10 µM
Second compound 1 µM
  IC50: > 10 µM
Second compound 3.16 µM
  IC50: > 10 µM
Second compound 10 µM
  IC50: > 10 µM
[1]
  viability, T/C: 101%
[2]
  viability, T/C: 107%
[3]
  viability, T/C: 92.8%
[4]
  viability, T/C: 82.9%
[5]
  viability, T/C: 86.5%
[6]
  viability, T/C: 80.7%
[7]
  viability, T/C: 100%
[8]
  viability, T/C: 116%
[9]
  viability, T/C: 107%
[10]
  viability, T/C: 83.4%
[11]
  viability, T/C: 90.8%
[12]
  viability, T/C: 78.8%
[13]
  viability, T/C: 85.5%
[14]
  viability, T/C: 98.1%
[15]
  viability, T/C: 102%
[16]
  viability, T/C: 97.8%
[17]
  viability, T/C: 85.5%
[18]
  viability, T/C: 83%
[19]
  viability, T/C: 103%
[20]
  viability, T/C: 85%
[21]
  viability, T/C: 99.4%
[22]
  viability, T/C: 75.9%
[23]
  viability, T/C: 77.7%
[24]
  viability, T/C: 76.8%
[25]
  viability, T/C: 97.7%
[26]
  viability, T/C: 93.5%
[27]
  viability, T/C: 88.1%
[28]
  viability, T/C: 92.5%
[29]
  viability, T/C: 82.1%
[30]
  viability, T/C: 70.2%
[31]
  viability, T/C: 102%
[32]
  viability, T/C: 81%
[33]
  viability, T/C: 93.2%
[34]
  viability, T/C: 85.7%
[35]
  viability, T/C: 78.2%
[36]
  viability, T/C: 74.3%
